# From patent US7943643B2, “Aryl substituted pyridines and the use thereof” (Purdue Pharma L.P., priority 2001, dated 2011)
# Biological target: rBIIa/beta 1 sodium channels (Rattus norvegicus, UniProt P04775)
# Experiment: Electrophysiological assay, two-electrode voltage clamp in Xenopus oocytes
# Assay type: cell-based
# Settings: apparent inhibition constant from single point inhibition data; inactivated-state voltage protocol; channels expressed in Xenopus oocytes; read-out: RBIIA/β1 Ki
# Description: Electrophysiological Assay:
# Electrophysiological Assay was used to measure potencies of compounds of the present invention rBIIa/beta 1 sodium channels expressed in Xenopus oocytes.
# Preparation of cRNA encoding cloned rat brain type IIa (rBIIa) and beta 1 (β1): cDNA clones encoding the rat brain beta 1 subunit were cloned in house using standard methods, and mRNA were prepared by standard methods. mRNA encoding rBIIa was provided by Dr. A. Golden (UC Irvine). The mRNAs were diluted and stored at −80° C. in 1 μL aliquots until injection.
# Preparation of oocytes: Mature female Xenopus laevis were anaesthetized (20-40 min) using 0.15% 3-aminobenzoic acid ethyl ester (MS-222) following established procedures (Woodward, R. M., et al., Mol. Pharmacol. 41:89-103 (1992)).
# Two to six ovarian lobes were surgically removed. Oocytes at developmental stages V-VI were dissected from the ovary, oocytes were still surrounded by enveloping ovarian tissues. Oocytes were defolliculated on the day of surgery by treatment with collagenase (0.5 mg/mL Sigma Type I, or Boehringer Mannheim Type A, for 0.5-1 hr). Treated oocytes were vortexed to dislodge epithelia, washed repeatedly and stored in Barth's medium containing 88 mM NaCl, 1 mM KCl, 0.41 mM CaCl2, 0.33 mM Ca(NO3)2, 0.82 mM MgSO4, 2.4 mM NaHCO3, 5 mM HEPES, pH 7.4 adjusted with 0.1 mg/mL gentamycin sulphate.
# Micro-injection of oocytes: Defolliculated oocytes were micro-injected using a Nanoject injection system (Drummond Scientific Co., Broomall, Pa.). Injection pipettes were beveled to minimize clogging. Tip diameter of injection pipettes was 15-35 μm. Oocytes were microinjected with approximately 50 nL 1:10 ratio mixtures of cRNAs for rBIIa and beta 1 respectively.
# Electrophysiology: Membrane current responses were recorded in frog Ringer solution containing 115 mM NaCl, 2 mM KCl, 1.8 mM CaCl2, 5 mM HEPES, pH 7.4. Electrical recordings were made using a conventional two-electrode voltage clamp (Dagan TEV-200) over periods ranging between 1-7 days following injection. The recording chamber was a simple gravity fed flow-through chamber (volume […] depending on adjustment of aspirator). Oocytes were placed in the recording chamber, impaled with electrodes and continuously perfused (5-15 mL min^−1) with frog Ringer's solution. The tested compounds were applied by bath perfusion.
# Voltage protocols for evoking sodium channel currents: The standard holding potential for whole oocyte clamp was −120 mV. Standard current-voltage relationships were elicited by 40 ms depolarizing steps starting from −60 mV to +50 mV in 10 mV increments. Peak currents were measured as the maximum negative current after depolarizing voltage steps. The voltage from maximum current response was noted and used for the next voltage protocol.
# The purpose was to find compounds that are state dependent modifiers of neuronal sodium channels. Preferably, the compounds have a low affinity for the rested/closed state of the channel, but a high affinity for the inactivated state. The following voltage protocol was used to measure a compounds affinity for the inactivated state. Oocytes were held at a holding potential of −120 mV. At this membrane voltage, nearly all of the channels would be in the closed state. Then a 4 second depolarization was made to the voltage where the maximum current was elicited. At the end of this depolarization, nearly all the channels would be in the inactivated state. A 10 ms hyperpolarizing step was then made in order to remove some channels from the inactivated state. A final depolarizing test pulse was used to assay the sodium current after this prolonged depolarization (see analysis below). Sodium currents were measured at this test pulse before and after the application of the tested compound. Data was acquired using pClamp 8.0 software and analyzed with clampfit software (Axon instruments). […]
row,Ki [µM],SMILES
1,28.1,"NC(=O)c1ccc(-c2ccc3ccccc3c2)nc1 [2-(2-naphthyl)pyridine-5-carboxamide, 2-(2-Naphthyl)pyridine-5-carboxamide]"
2,24.9,"NC(=O)c1ccnc(-c2ccc(-c3ccccc3)cc2)c1 [2-(2-phenylphenyl)pyridine-4-carboxamide, 2-(4-Phenylphenyl)pyridine-4-carboxamide]"
3,40.7,"NC(=O)c1ccc(-c2ccc(-c3ccccc3)cc2)nc1 [2-(2-phenylphenyl)pyridine-5-carboxamide, 2-(4-Phenylphenyl)pyridine-5-carboxamide]"
4,6.17,COc1ccc(-c2cc(C(N)=O)ccn2)cc1 [2-(4-Methoxyphenyl)pyridine-4-carboxamide]
5,44.6,COc1ccc(-c2ccc(C(N)=O)cn2)cc1 [2-(4-Methoxyphenyl)pyridine-5-carboxamide]
6,22.3,NC(=O)c1ccnc(-c2ccc(Oc3ccccc3)cc2)c1 [2-(4-Phenoxyphenyl)pyridine-4-carboxamide]
7,14.6,NC(=O)c1ccc(-c2ccc(Oc3ccccc3)cc2)nc1 [2-(4-Phenoxyphenyl)pyridine-5-carboxamide]
8,35.6,CSc1ccc(-c2ccc(C(N)=O)cn2)cc1 [2-(4-Thiomethylphenyl)pyridine-5-carboxamide]
9,24.7,NC(=O)c1ccnc(-c2ccc(OC(F)(F)F)cc2)c1 [2-(4-Trifluoromethoxyphenyl)pyridine-4-carboxamide]
10,34.2,NC(=O)c1ccc(-c2ccc(OC(F)(F)F)cc2)nc1 [2-(4-Trifluoromethoxyphenyl)pyridine-5-carboxamide]
11,24.7,NC(=O)c1ccc(-c2ccc(C(F)(F)F)cc2)nc1 [2-(4-Trifluoromethylphenyl)pyridine-5-carboxamide]
12,14.7,"CCOc1ccc(-c2cc(C(N)=O)ccn2)cc1 [2-(4-ethoxyphenyl)pyridine-4-carboxamide, 2-(4-Ethoxyphenyl)pyridine-4-carboxamide]"
13,29.7,"CCOc1ccc(-c2ccc(C(N)=O)cn2)cc1 [2-(4-ethoxyphenyl)pyridine-5-carboxamide, 2-(4-Ethoxyphenyl)pyridine-5-carboxamide]"
14,39.2,CC(C)c1ccc(-c2cc(C(N)=O)ccn2)cc1 [2-(4-i-Propylphenyl)pyridine-4-carboxamide]
15,32.9,CCCCc1ccc(-c2cc(C(N)=O)ccn2)cc1 [2-(4-n-Butylphenyl)pyridine-4-carboxamide]
16,24.5,CCCCc1ccc(-c2ccc(C(N)=O)cn2)cc1 [2-(4-n-Butylphenyl)pyridine-5-carboxamide]

row,Ki [µM],SMILES
1,53.1,CC(C)(C)c1ccc(-c2cc(C(N)=O)ccn2)cc1 [2-(4-tert-Butylphenyl)pyridine-4-carboxamide]
2,32.3,CC(C)(C)c1ccc(-c2ccc(C(N)=O)cn2)cc1 [2-(4-tert-Butylphenyl)pyridine-5-carboxamide]
3,0.95,O=C(NCCN1CCCCC1)c1ccc(-c2ccc(Oc3ccc(F)cc3)cc2)nc1 [2-[4-(4-Fluorophenoxy)phenyl]pyridine 5-carboxylic acid 2-(N-piperidinyl)ethylamide]
4,13.6,NC(=O)c1cccnc1-c1ccc(Oc2ccc(F)cc2)cc1 [2-[4-(4-Fluorophenoxy)phenyl]pyridine-3-carboxamide]
5,6.91,NC(=O)c1ccnc(-c2ccc(Oc3ccc(F)cc3)cc2)c1 [2-[4-(4-Fluorophenoxy)phenyl]pyridine-4-carboxamide]
6,35.1,"NC(=O)c1cncc(-c2ccc3ccccc3c2)c1 [5-(2-naphthyl)pyridine-3-carboxamide, 5-(2-Naphthyl)pyridine-3-carboxamide]"
7,54.4,COc1ccc(-c2cncc(C(N)=O)c2)cc1 [5-(4-Methoxyphenyl)pyridine-3-carboxamide]
8,5.43,NC(=O)c1cncc(-c2ccc(Oc3ccccc3)cc2)c1 [5-(4-Phenoxyphenyl)pyridine-3-carboxamide]
9,29,CSc1ccc(-c2cncc(C(N)=O)c2)cc1 [5-(4-Thiomethylphenyl)pyridine-3-carboxamide]
10,25,NC(=O)c1cncc(-c2ccc(OC(F)(F)F)cc2)c1 [5-(4-Trifluoromethoxyphenyl)pyridine-3-carboxamide]
11,23,NC(=O)c1cncc(-c2ccc(C(F)(F)F)cc2)c1 [5-(4-Trifluoromethylphenyl)pyridine-3-carboxamide]
12,36.2,"CCOc1ccc(-c2cncc(C(N)=O)c2)cc1 [5-(4-ethoxyphenyl)pyridine-3-carboxamide, 5-(4-Ethoxyphenyl)pyridine-3-carboxamide]"
13,11.1,CCCCc1ccc(-c2cncc(C(N)=O)c2)cc1 [5-(4-n-Butylphenyl)pyridine-3-carboxamide]
14,18.6,CC(C)(C)c1ccc(-c2cncc(C(N)=O)c2)cc1 [5-(4-tert-Butylphenyl)pyridine-3-carboxamide]
15,0.78,O=C(NCCN1CCCCC1)c1cncc(-c2ccc(Oc3ccc(F)cc3)cc2)c1 [5-[4-(4-fluorophenoxy)phenyl]pyridine 3-carboxylic acid 2-(N-piperidinyl)ethylamide]
